We go through one substance from PMC7301643 (Biochemistry, 2020).

Test [1] addresses T1, capping protein (CP, CPα1β2) (Mus musculus, UniProt P47753+P47757). Put plainly: Fluorescence anisotropy titration of CP into TAMRA-labeled CPI-motif peptide. Format: binding. (In general: Fluorescence polarisation rises when a labelled molecule tumbles more slowly, as on binding a larger partner.)
Test [2] has as its target T1, capping protein (CP, CPα1β2). Put plainly: Isothermal calorimetry. The settings on record: for ΔG°obs, ITC: ΔG° = −RT ln Ka. Type of test: binding. For orientation: In ITC the heat of successive injections is recorded.
For another test, the target named is CP:F-actin barbed end (Mus musculus, UniProt P47753+P47757). Put plainly: Pyrene-actin polymerization. Format: biochemical, Oryctolagus cuniculus (actin). Particulars: at concentrations higher than 1 μM.
The target in another test is CP bound to F-actin (Mus musculus, UniProt Q5RKN9+Q923G3). Put plainly: Kd for CPI binding to CP bound to F-actin, calculated from thermodynamic cycle. Also on record: species or system Oryctolagus cuniculus (actin).
The mark [3] stands for this setting: independent experiment 1 (first line), 25 °C, pH 7.2.
Where [4] appears, read: independent experiment 2 (second line).

As usually defined, the Kd is the equilibrium constant for the complex coming apart. With Ac-WASHCAP-NH2 [WASHCAP], binding in test [1] was characterised by a dissociation constant (Kd) of 8.5 ± 0.8 nM. Further, in test [2] (setting [3]), the “N (stoichiometry), ITC” value is 0.985 ± 0.004; the “TΔS°obs, ITC” value is -14.1 kcal/mol; the “ΔH°obs, ITC” value is -24.6 ± 0.1 kcal/mol; the “ΔG°obs, ITC” value is -10.56 ± 0.04 kcal/mol. In addition, in test [2] (setting [4]), the “N (stoichiometry), ITC” value stood at 0.971 ± 0.009; the “TΔS°obs, ITC” value is -18.3 kcal/mol; the “ΔH°obs, ITC” value was -28.9 ± 0.4 kcal/mol; the “ΔG°obs, ITC” value is -10.60 ± 0.10 kcal/mol. Besides, at CP:F-actin barbed end, the “interference of peptide with actin polymerization” value is “interfered with polymerization”. The dissociation constant (Kd) on CP bound to F-actin is 110 ± 10 nM.
